Consider two molecules from ChEMBL document CHEMBL4308841, “Synthesis, in vitro antiproliferative activity, and kinase inhibitory effects of pyrazole-containing diarylureas and diarylamides” (Eur J Med Chem, 2018).

Holding throughout (assay type): functional
Experiment [1] deals with CCRF-CEM. Put plainly: Growth inhibition of human CCRF-CEM cells assessed as cell growth at 10 uM incubated for 48 hrs by sulforhodamine B assay relative to control. The conditions noted are these: read-out: Activity. In general terms: In SRB staining, fixed cells bind dye roughly in proportion to their protein.
Experiment [2] relates to HOP-62. The experiment can be described thus: Growth inhibition of human HOP62 cells assessed as cell growth at 10 uM incubated for 48 hrs by sulforhodamine B assay relative to control. The conditions noted are these: HOP-62, 48 h, read-out: Activity.
Experiment [3] concerns NCI/ADR-RES. Put plainly: Growth inhibition of human NCI/ADR-RES cells assessed as cell growth at 10 uM incubated for 48 hrs by sulforhodamine B assay relative to control. The conditions noted are these: read-out: Activity.
In experiment [4] the test system is SK-MEL-5. The experiment can be described thus: Growth inhibition of human SK-MEL-5 cells assessed as cell growth at 10 uM incubated for 48 hrs by sulforhodamine B assay relative to control. The conditions noted are these: SK-MEL-5, 48 h, read-out: Activity.
The test system of experiment [5] is SK-MEL-28. The experiment can be described thus: Growth inhibition of human SK-MEL-28 cells assessed as cell growth at 10 uM incubated for 48 hrs by sulforhodamine B assay relative to control. To be noted: SK-MEL-28, 48 h, read-out: Activity.
Experiment [6] relates to MCF7. Put plainly: Growth inhibition of human MCF7 cells assessed as cell growth at 10 uM incubated for 48 hrs by sulforhodamine B assay relative to control. To be noted: MCF7, 48 h, read-out: Activity.
In experiment [7] the test system is Malme-3M. Put plainly: Growth inhibition of human MALME-3M cells assessed as cell growth at 10 uM incubated for 48 hrs by sulforhodamine B assay relative to control. To be noted: read-out: Activity.
The test system of experiment [8] is OVCAR-8. The experiment can be described thus: Growth inhibition of human OVCAR8 cells assessed as cell growth at 10 uM incubated for 48 hrs by sulforhodamine B assay relative to control. The conditions noted are these: OVCAR-8, 48 h, read-out: Activity.
Experiment [9] relates to A549. The experiment can be described thus: Growth inhibition of human A549/ATCC cells assessed as cell growth at 10 uM incubated for 48 hrs by sulforhodamine B assay relative to control. To be noted: A549, 48 h, read-out: Activity.
In experiment [10] the test system is COLO 205. The experiment can be described thus: Growth inhibition of human COLO205 cells assessed as cell growth at 10 uM incubated for 48 hrs by sulforhodamine B assay relative to control. To be noted: COLO 205, 48 h, read-out: Activity.
Experiment [11] relates to HCT-15. Put plainly: Growth inhibition of human HCT15 cells assessed as cell growth at 10 uM incubated for 48 hrs by sulforhodamine B assay relative to control. The conditions noted are these: HCT-15, 48 h, read-out: Activity.
The test system of experiment [12] is DU-145. Put plainly: Growth inhibition of human DU145 cells assessed as cell growth at 10 uM incubated for 48 hrs by sulforhodamine B assay relative to control. The conditions noted are these: DU-145, 48 h, read-out: Activity.
In experiment [13] the test system is SN12C. Put plainly: Growth inhibition of human SN12C cells assessed as cell growth at 10 uM incubated for 48 hrs by sulforhodamine B assay relative to control. To be noted: read-out: Activity.
The test system of experiment [14] is MOLT-4. The experiment can be described thus: Growth inhibition of human MOLT4 cells assessed as cell growth at 10 uM incubated for 48 hrs by sulforhodamine B assay relative to control. The conditions noted are these: MOLT-4, 48 h, read-out: Activity.
For experiment [15], the system named is UO-31. The experiment can be described thus: Growth inhibition of human UO31 cells assessed as cell growth at 10 uM incubated for 48 hrs by sulforhodamine B assay relative to control. To be noted: UO-31, 48 h, read-out: Activity.
Experiment [16] has as its system NCI-H23. The experiment can be described thus: Growth inhibition of human NCI-H23 cells assessed as cell growth at 10 uM incubated for 48 hrs by sulforhodamine B assay relative to control. To be noted: NCI-H23, 48 h, read-out: Activity.
Experiment [17] has as its system A498. Put plainly: Growth inhibition of human A498 cells assessed as cell growth at 10 uM incubated for 48 hrs by sulforhodamine B assay relative to control. The conditions noted are these: A498, 48 h, read-out: Activity.
The subject of experiment [18] is 786-0. Put plainly: Growth inhibition of human 786-0 cells assessed as cell growth at 10 uM incubated for 48 hrs by sulforhodamine B assay relative to control. To be noted: 786-0, 48 h, read-out: Activity.
For experiment [19], the system named is NCI-H322M. The experiment can be described thus: Growth inhibition of human NCI-H322M cells assessed as cell growth at 10 uM incubated for 48 hrs by sulforhodamine B assay relative to control. The conditions noted are these: read-out: Activity.
The test system of experiment [20] is PC-3. The experiment can be described thus: Growth inhibition of human PC3 cells assessed as cell growth at 10 uM incubated for 48 hrs by sulforhodamine B assay relative to control. To be noted: PC-3, 48 h, read-out: Activity.
Experiment [21] deals with UACC-257. The experiment can be described thus: Growth inhibition of human UACC257 cells assessed as cell growth at 10 uM incubated for 48 hrs by sulforhodamine B assay relative to control. The conditions noted are these: UACC-257, 48 h, read-out: Activity.

`COc1cc(Cl)cc(-c2nn(-c3cccc(NC(=O)c4cc(C(F)(F)F)cc(C(F)(F)F)c4)c3)cc2-c2ccncc2)c1`: the growth at 10 µM in experiment [1] was determined as 57.1%; in experiment [2], 103%; in [3], 67.8%; in experiment [4] it was 67.3%; in experiment [5], 78.8%; in experiment [6], 57.8%. Further, the growth at 10 µM in experiment [7] is 104%; in experiment [8], 55.4%; in experiment [9], 43.5%; in [10], 88.7%; in [11], 58.6%; in experiment [12], 78.2%. Also, the growth at 10 µM in experiment [13] was 69.8%; in experiment [14] it was 55.3%; in experiment [15], 54.3%; in [16], 72.1%; in experiment [17], -1.74%; in experiment [18], 80.2%. For the same molecule, the growth at 10 µM is 80.3% in [19], 35.6% in [20] and 79.3% in experiment [21].

With `COc1cc(Cl)cc(-c2nn(-c3cccc(NC(=O)c4ccc(Cl)c(Cl)c4)c3)cc2-c2ccncc2)c1`, the growth at 10 µM in [1] was found to be 59.2%; in [2] it was 105%; in [3], 61.4%; in experiment [4] it was 78.5%; in experiment [5] it was 87.8%; in experiment [6] it was 57.7%. Further, the growth at 10 µM in experiment [7] was found to be 96.4%; in experiment [8], 58.4%; in [9], 59.7%; in experiment [10] it was 81.5%; in experiment [11], 57.9%; in experiment [12] it was 88.5%. For the same molecule, the growth at 10 µM was 69.6% in [13]; 54.9% in experiment [14]; 43.5% in experiment [15]; 75.2% in experiment [16]; -0.94% in [17]; 74.1% in [18]. Moreover, the values for the growth at 10 µM in experiment [19], in experiment [20] and in [21] were 84.5%, 34% and 84.2%, respectively.
